{"source": "patent US7189741B2", "about": "“Indolylpiperidine derivatives as antihistaminic and antiallergic agents” (Almirall Prodesfarma S.A., priority 2000, dated 2007)", "key": {"histamine-H1 receptors": {"molecular_target": "T1, histamine-H1 receptors (Cavia porcellus, UniProt P31389)", "T1 construct": "performed in guinea pig cerebellum membranes as described previously; from tissue; host or cells: guinea pig cerebellum membranes", "T1 sequence (P31389 whole entry)": "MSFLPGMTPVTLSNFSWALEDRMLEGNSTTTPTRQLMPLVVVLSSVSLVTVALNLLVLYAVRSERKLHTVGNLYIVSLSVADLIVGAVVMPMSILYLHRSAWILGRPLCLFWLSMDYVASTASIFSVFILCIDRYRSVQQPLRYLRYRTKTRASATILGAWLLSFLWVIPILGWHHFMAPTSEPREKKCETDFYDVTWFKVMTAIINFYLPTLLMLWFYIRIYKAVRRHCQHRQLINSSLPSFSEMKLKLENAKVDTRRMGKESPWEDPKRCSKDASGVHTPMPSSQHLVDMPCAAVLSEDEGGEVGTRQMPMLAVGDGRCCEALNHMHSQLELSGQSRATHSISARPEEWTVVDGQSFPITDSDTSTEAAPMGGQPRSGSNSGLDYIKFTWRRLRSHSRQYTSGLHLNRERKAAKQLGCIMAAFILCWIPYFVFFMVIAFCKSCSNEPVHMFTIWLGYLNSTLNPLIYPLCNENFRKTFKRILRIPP", "experiment": "Histamine-H1 receptor binding assay ([3H]-mepyramine displacement)", "design": "species or system guinea pig", "protocol": "Briefly, the membrane suspensions (160 μg/ml) were incubated at 30° C. with 0.7 nM [^3H]-mepyramine and different concentrations of the test compounds in a final volume of 250 μl. Binding reactions were terminated by filtration after 30 min of incubation and the bound radioactivity was determined. The specific binding was measured in the presence of 10 μM of promethazine. The affinity of each test compound to the receptor was determined by using at least six different concentrations run in duplicate. IC50 values were obtained by non-linear regression by use of SAS on a DEC AXP computer."}, "[1]": {"test_system": "histamine induced skin vascular permeability", "experiment": "Histamine-induced skin vascular permeability in rats", "assay_type": "in vivo", "conditions": "Rattus norvegicus; male Wistar rats, oral, dose of 1 mg/Kg, 4 hours after administration, vs vehicle treated group", "protocol": "Male Wistar rats (180–210 g) were treated orally with the test compound or vehicle. 1, 4, 8 and 24 hours later, the rats were lightly anaesthetized with ether. The cutaneous reaction was induced by two intradermal injections of 50 μl of histamine (100 μg/ml) onto the back, followed by a intravenous injection of 3 ml/kg of Evan's Blue (5 mg/ml), both dissolved in saline. Sixty min later, the rats were killed by cervical dislocation and the back skin dissected free. The diameter (in millimeters) of the papule was measured in two directions and the area was calculated."}, "[2]": {"conditions": "guinea pig cerebellum membranes, 0.7 nM [3H]-mepyramine, 30 min at 30° C., read-out: Binding to receptor H1 (IC50)"}}, "note": "Like-named read-outs stand apart in the source and are kept apart here."}
{"molecule": "O=C(O)c1cccc(CN2CCC(c3cn(Cc4ccco4)c4cc(F)ccc34)CC2)c1", "note": "[Example 96, 3-[4-(6-fluoro-1-furan-2-ylmethyl-1H-indol-3-yl)-piperidin-1-ylmethyl]-benzoic acid]", "values": [{"measurement": "IC50", "setting": "histamine-H1 receptors; [2]", "result": 0.107, "unit": "µM"}]}
{"molecule": "COc1ccc(CN2CCC(c3cn(Cc4ccoc4)c4cc(F)ccc34)CC2)cc1C(=O)O", "note": "[Example 80, 5-[4-(6-fluoro-1-furan-3-ylmethyl-1H-indol-3-yl)-piperidin-1-ylmethyl]-2-methoxy-benzoic acid]", "values": [{"measurement": "IC50", "setting": "histamine-H1 receptors; [2]", "result": 0.096, "unit": "µM"}, {"measurement": "inhibition in vivo at 1 mg/kg", "setting": "[1]", "result": "> 50", "unit": "%"}]}
{"molecule": "O=C(O)c1cc(CN2CCC(c3cn(CCCOc4ccc5c(c4)OCO5)c4ccccc34)CC2)ccc1F", "note": "[Example 50, 5-(4-{1-[3-(benzo[1,3]dioxol-5-yloxy)-propyl]-1H-indol-3-yl}-piperidin-1-ylmethyl)-2-fluoro-benzoic acid]", "values": [{"measurement": "IC50", "setting": "histamine-H1 receptors; [2]", "result": 0.155, "unit": "µM"}]}
{"molecule": "COc1ccc(CN2CCC(c3cn(Cc4ccc(Cl)s4)c4cc(F)ccc34)CC2)cc1C(=O)O", "note": "[Example 79, 5-{4-[1-(5-chloro-thiophen-2-ylmethyl)-6-fluoro-1H-indol-3-yl]-piperidin-1-ylmethyl}-2-methoxy-benzoic acid]", "values": [{"measurement": "IC50", "setting": "histamine-H1 receptors; [2]", "result": 0.15, "unit": "µM"}, {"measurement": "inhibition in vivo at 1 mg/kg", "setting": "[1]", "result": "> 50", "unit": "%"}]}
{"molecule": "O=C(O)c1ccccc1OCCN1CCC(c2cn(CCCC3OCCO3)c3ccccc23)CC1", "note": "[Example 21, 2-(2-{4-[1-(3-[1,3]dioxolan-2-yl-propyl)-1H-indol-3-yl]-piperidin-1-yl}-ethoxy)-benzoic acid]", "values": [{"measurement": "IC50", "setting": "histamine-H1 receptors; [2]", "result": 0.295, "unit": "µM"}]}
{"molecule": "O=C(O)c1ccccc1OCCN1CCC(c2cn(Cc3ccoc3)c3cc(F)ccc23)CC1", "note": "[Example 112, 2-{2-[4-(6-fluoro-1-furan-3-ylmethyl-1H-indol-3-yl)-piperidin-1-yl]-ethoxy}-benzoic acid]", "values": [{"measurement": "IC50", "setting": "histamine-H1 receptors; [2]", "result": 0.031, "unit": "µM"}]}
{"molecule": "O=C(O)c1cccc(CN2CCC(c3cn(CCC4OCCO4)c4ccccc34)CC2)c1", "note": "[Example 28, 3-{4-[1-(2-[1,3]dioxolan-2-yl-ethyl)-1H-indol-3-yl]-piperidin-1-ylmethyl}-benzoic acid]", "values": [{"measurement": "IC50", "setting": "histamine-H1 receptors; [2]", "result": 0.205, "unit": "µM"}]}
{"molecule": "O=C(O)c1ccccc1OCCN1CCC(c2cn(CCC3OCCO3)c3cc(F)ccc23)CC1", "note": "[Example 24, 2-(2-{4-[1-(2-[1,3]dioxolan-2-yl-ethyl)-6-fluoro-1H-indol-3-yl]-piperidin-1-yl}-ethoxy)-benzoic acid]", "values": [{"measurement": "IC50", "setting": "histamine-H1 receptors; [2]", "result": 0.051, "unit": "µM"}, {"measurement": "inhibition in vivo at 1 mg/kg", "setting": "[1]", "result": "> 50", "unit": "%"}]}
{"molecule": "COc1ccc(CN2CCC(c3cn(CCc4cccs4)c4cc(F)ccc34)CC2)cc1C(=O)O", "note": "[Example 69, 5-{4-[6-fluoro-1-(2-thiophen-2-yl-ethyl)-1H-indol-3-yl]-piperidin-1-ylmethyl}-2-methoxy-benzoic acid]", "values": [{"measurement": "IC50", "setting": "histamine-H1 receptors; [2]", "result": 0.135, "unit": "µM"}]}
{"molecule": "O=C(O)c1ccccc1OCCN1CCC(c2cn(CCCOc3ccc4c(c3)OCO4)c3ccccc23)CC1", "note": "[Example 16, 2-[2-(4-{1-[3-(benzo[1,3]dioxol-5-yloxy)propyl]-1H-indol-3-yl}piperidin-1-yl)ethoxy]benzoic acid]", "values": [{"measurement": "IC50", "setting": "histamine-H1 receptors; [2]", "result": 0.078, "unit": "µM"}]}
{"molecule": "COc1ccc2c(c1)c(C1CCN(CCOc3ccccc3C(=O)O)CC1)cn2CCc1ccsc1", "note": "[Example 88, 2-(2-{4-[5-methoxy-1-(2-thiophen-3-yl-ethyl)-1H-indol-3-yl]-piperidin-1-yl}-ethoxy)-benzoic acid]", "values": [{"measurement": "IC50", "setting": "histamine-H1 receptors; [2]", "result": 0.051, "unit": "µM"}]}
{"molecule": "O=C(O)c1ccccc1OCCN1CCC(c2cn(CCC3OCCO3)c3ccccc23)CC1", "note": "[Example 23, 2-(2-{4-[1-(2-[1,3]dioxolan-2-yl-ethyl)-1H-indol-3-yl]-piperidin-1-yl}-ethoxy)-benzoic acid]", "values": [{"measurement": "IC50", "setting": "histamine-H1 receptors; [2]", "result": 0.354, "unit": "µM"}, {"measurement": "inhibition in vivo at 1 mg/kg", "setting": "[1]", "result": "> 50", "unit": "%"}]}
{"molecule": "COc1ccc(CN2CCC(c3cn(CCc4ccsc4)c4cc(F)ccc34)CC2)cc1C(=O)O", "note": "[Example 78, 5-{4-[6-fluoro-1-(2-thiophen-3-yl-ethyl)-1H-indol-3-yl]-piperidin-1-ylmethyl}-2-methoxy-benzoic acid]", "values": [{"measurement": "IC50", "setting": "histamine-H1 receptors", "result": 0.065, "unit": "µM"}, {"measurement": "inhibition in vivo at 1 mg/kg", "setting": "[1]", "result": "> 50", "unit": "%"}]}
{"molecule": "COc1ccc(CN2CCC(c3cn(Cc4cccs4)c4cc(F)ccc34)CC2)cc1C(=O)O", "note": "[Example 82, 5-[4-(6-fluoro-1-thiophen-2-ylmethyl-1H-indol-3-yl)-piperidin-1-ylmethyl]-2-methoxy-benzoic acid]", "values": [{"measurement": "IC50", "setting": "histamine-H1 receptors; [2]", "result": 0.091, "unit": "µM"}, {"measurement": "inhibition in vivo at 1 mg/kg", "setting": "[1]", "result": "> 50", "unit": "%"}]}
{"molecule": "O=C(O)c1ccccc1OCCN1CCC(c2cn(CCc3ccsc3)c3ccccc23)CC1", "note": "[Example 13, 2-(2-{4-[1-(2-thiophen-3-yl-ethyl)-1H-indol-3-yl]-piperidin-1-yl}-ethoxy)-benzoic acid]", "values": [{"measurement": "IC50", "setting": "histamine-H1 receptors; [2]", "result": 0.059, "unit": "µM"}]}
{"molecule": "COc1ccc(CN2CCC(c3cn(Cc4cccs4)c4ccccc34)CC2)cc1C(=O)O", "note": "[Example 73, 2-methoxy-5-[4-(1-thiophen-2-ylmethyl-1H-indol-3-yl)-piperidin-1-ylmethyl]-benzoic acid]", "values": [{"measurement": "IC50", "setting": "histamine-H1 receptors; [2]", "result": 0.125, "unit": "µM"}, {"measurement": "inhibition in vivo at 1 mg/kg", "setting": "[1]", "result": "> 50", "unit": "%"}]}
{"molecule": "O=C(O)c1ccccc1OCCN1CCC(c2cn(CC3OCCO3)c3ccccc23)CC1", "note": "[Example 1, 2-{2-[4-(1-[1,3]dioxolan-2-ylmethyl-1H-indol-3-yl)-piperidin-1-yl]-ethoxy}-benzoic acid]", "values": [{"measurement": "IC50", "setting": "histamine-H1 receptors; [2]", "result": 0.2, "unit": "µM"}]}
{"molecule": "O=C(O)c1ccccc1OCCN1CCC(c2cn(Cc3ccncc3)c3ccccc23)CC1", "note": "[Example 3, 2-{2-[4-(1-pyridin-4-ylmethyl-1H-indol-3-yl)-piperidin-1-yl]-ethoxy}-benzoic acid]", "values": [{"measurement": "IC50", "setting": "histamine-H1 receptors; [2]", "result": 0.267, "unit": "µM"}]}
{"molecule": "O=C(O)c1ccccc1OCCN1CCC(c2cn(CCc3cccs3)c3ccccc23)CC1", "note": "[Example 12, 2-(2-{4-[1-(2-thiophen-2-yl-ethyl)-1H-indol-3-yl]-piperidin-1-yl}-ethoxy)-benzoic acid]", "values": [{"measurement": "IC50", "setting": "histamine-H1 receptors; [2]", "result": 0.043, "unit": "µM"}]}
{"molecule": "COc1ccc(CN2CCC(c3cn(Cc4ccco4)c4ccccc34)CC2)cc1C(=O)O", "note": "[Example 85, 5-[4-(1-furan-2-ylmethyl-1H-indol-3-yl)-piperidin-1-ylmethyl]-2-methoxy-benzoic acid]", "values": [{"measurement": "IC50", "setting": "histamine-H1 receptors; [2]", "result": 0.101, "unit": "µM"}, {"measurement": "inhibition in vivo at 1 mg/kg", "setting": "[1]", "result": "> 50", "unit": "%"}]}
{"molecule": "O=C(O)c1ccccc1OCCN1CCC(c2cn(CCOc3ccc4c(c3)OCO4)c3ccccc23)CC1", "note": "[Example 77, 2-[2-(4-{1-[2-(benzo[1,3]dioxol-5-yloxy)-ethyl]-1H-indol-3-yl}-piperidin-1-yl)-ethoxy]-benzoic acid]", "values": [{"measurement": "IC50", "setting": "histamine-H1 receptors; [2]", "result": 0.116, "unit": "µM"}]}
{"molecule": "O=C(O)c1cccc(CN2CCC(c3cn(Cc4cccs4)c4ccccc34)CC2)c1", "note": "[Example 25, 3-[4-(1-thiophen-2-ylmethyl-1H-indol-3-yl)-piperidin-1-ylmethyl]-benzoic acid]", "values": [{"measurement": "IC50", "setting": "histamine-H1 receptors; [2]", "result": 0.09, "unit": "µM"}]}
{"molecule": "O=C(O)c1ccccc1OCCN1CCC(c2cn(Cc3ccco3)c3cc(F)ccc23)CC1", "note": "[Example 22, 2-{2-[4-(6-fluoro-1-furan-2-ylmethyl-1H-indol-3-yl)-piperidin-1-yl]-ethoxy}-benzoic acid]", "values": [{"measurement": "inhibition in vivo at 1 mg/kg", "setting": "[1]", "result": "> 50", "unit": "%"}]}
{"molecule": "COc1ccc(CN2CCC(c3cn(CCc4ccsc4)c4ccccc34)CC2)cc1C(=O)O", "note": "[Example 75, 2-methoxy-5-{4-[1-(2-thiophen-3-yl-ethyl)-1H-indol-3-yl]-piperidin-1-ylmethyl}-benzoic acid]", "values": [{"measurement": "IC50", "setting": "histamine-H1 receptors; [2]", "result": 0.052, "unit": "µM"}, {"measurement": "inhibition in vivo at 1 mg/kg", "setting": "[1]", "result": "> 50", "unit": "%"}]}
{"molecule": "O=C(O)c1ccccc1OCCN1CCC(c2cn(CCc3ccsc3)c3cc(F)ccc23)CC1", "note": "[Example 110, 2-(2-{4-[6-fluoro-1-(2-thiophen-3-yl-ethyl)-1H-indol-3-yl]-piperidin-1-yl}-ethoxy)-benzoic acid]", "values": [{"measurement": "IC50", "setting": "histamine-H1 receptors; [2]", "result": 0.023, "unit": "µM"}]}
{"molecule": "Cn1ccnc1SCCCn1cc(C2CCN(CCOc3ccccc3C(=O)O)CC2)c2ccccc21", "note": "[Example 6, 2-[2-(4-{1-[3-(1-methyl-1H-imidazol-2-ylsulfanyl)-propyl]-1H-indol-3-yl}-piperidin-1-yl)-ethoxy]-benzoic acid]", "values": [{"measurement": "IC50", "setting": "histamine-H1 receptors; [2]", "result": 0.463, "unit": "µM"}]}
{"molecule": "O=C(O)c1ccccc1OCCN1CCC(c2cn(Cc3ccco3)c3ccccc23)CC1", "note": "[Example 9, 2-{2-[4-(1-furan-2-ylmethyl-1H-indol-3-yl)-piperidin-1-yl]-ethoxy}-benzoic acid]", "values": [{"measurement": "IC50", "setting": "histamine-H1 receptors; [2]", "result": 0.098, "unit": "µM"}]}
{"molecule": "O=C(O)c1ccccc1OCCN1CCC(c2cn(Cc3ccc(Cl)s3)c3ccccc23)CC1", "note": "[Example 19, 2-(2-{4-[1-(5-chloro-thiophen-2-ylmethyl)-1H-indol-3-yl]-piperidin-1-yl}-ethoxy)-benzoic acid]", "values": [{"measurement": "IC50", "setting": "histamine-H1 receptors; [2]", "result": 0.12, "unit": "µM"}]}
{"molecule": "COc1ccc(CN2CCC(c3cn(Cc4ccoc4)c4ccccc34)CC2)cc1C(=O)O", "note": "[Example 86, 5-[4-(1-furan-3-ylmethyl-1H-indol-3-yl)-piperidin-1-ylmethyl]-2-methoxy-benzoic acid]", "values": [{"measurement": "IC50", "setting": "histamine-H1 receptors; [2]", "result": 0.155, "unit": "µM"}, {"measurement": "inhibition in vivo at 1 mg/kg", "setting": "[1]", "result": "> 50", "unit": "%"}]}
{"molecule": "O=C(O)c1ccccc1OCCN1CCC(c2cn(Cc3ccsc3)c3ccccc23)CC1", "note": "[Example 11, 2-{2-[4-(1-thiophen-3-ylmethyl-1H-indol-3-yl)-piperidin-1-yl]-ethoxy}-benzoic acid]", "values": [{"measurement": "IC50", "setting": "histamine-H1 receptors; [2]", "result": 0.4, "unit": "µM"}]}
